Assay results as given in patent US20020111314A1, “Novel stimulation of gene expression and protein synthesis of heat shock protein 72/73 (Hsp 70)” (The Trustees of Columbia University, priority 1995, published 2002).
Square brackets hold non-standard residues; d marks the D form. Peptide text beside a SMILES is read from it. Nle = CCCC[C@H](N)C(=O)O

Tests used:
HSF1 = HSF1 steady-state level and trimerization (Western blot, EGS cross-linking) in HepG2 cells; format: cell-based, human; conditions: ALLN 40 μg/ml, 2 hours
Experimental: HepG2 cells were treated with serum-free MEM containing 1.5% BSA for 2 hours at 37° C. without any additions (lane 1), at 37° C. but containing 40 μg/ml of ALLN in the medium (lane 2), at 37° C. in a medium containing both ALLN and 50 μg/ml of cycloheximide (lane 3), at 42° C. alone (lane 4), or at 42° C. plus cycloheximide in the medium (lane 5). Cell lysates were prepared as described under Experimental Details. The lysates were either directly run on the SDS-PAGE (A) to show the steady-state protein levels of HSF1 or subjected to cross-linking with ethylene glycol bis sucrinimidylsuccinate (EGS) before running the gel (B) to show the oligomeric forms of HSF1. The proteins were then transfered to a nitrocellulose membrane and immunoblotted with anti-human HSF1 antibody. Arrows on the right side indicates the monomeric, dimeric or trimeric forms of HSF1, respectively. This experiment was repeated three times with identical results.
Total RNA was prepared using the procedure of Chomczynski and Sacchi (Chomczynski, et al., 1987) and a commercially prepared reagent, TRISOLV™ (Biotecx Laboratories Inc., TX). Equal amounts of tRNA samples (10 μg) were size-fractionated on a 1% agarose-formaldehyde gel according to the methods described (Maniatis, et al., 1982) and transferred to a piece of QIAGEN plus nylon membrane. To determine loading and transfer efficiency, RNA was stained with ethidium bromide before and after transfer. The membrane was baked for 30 min. at 80° C. in vacuo (a vacuum) followed by UV cross-linking. It was then incubated for 4 hours at 65° C. in a prehybridization mixture containing 10% dextran sulfate, 1% SDS, 1M sodium chloride, 50 mM Tris-HCl (pH 7.5) and 100 μg/ml denatured salmon sperm DNA. Hybridization was carried out for 18 hours at 65° C. in the same buffer with a ^32P-labeled (1×10^6 cpm/ml) 40-mer oligonucleotide probe to the untranslated 5′ region of a human hsp70 gene (Oncogene Science). […] The membrane was then washed four times with 2×SSC, 0.1% SDS at room temperature, one time at 65° C. for 30 min., and one time at room temperature again for 5 min., and finally rinsed with 2×SSC at room temperature. This membrane was air dried and exposed to X-ray film at −80° C. for 48 hours. For measurement of the steady-state HSF1 protein levels, whole cell extracts were prepared by lysing the cells directly with 2×SDS-sample buffer (Maniatis, et al., 1982). For chemical cross-linking experiments, whole-cell extracts were prepared as described (Mosser, et al., 1988). Briefly, the cold PBS-washed cell pellets were quickly and repeatedly frozen in liquid nitrogen. […]

HepG2 cells = assay: Total incorporation of radiolabel (TCA cpm) as indicator of cell toxicity in HepG2 cells; format: cell-based, human; conditions: ALLN 10 μg/ml
Experimental: FIGS. 3A-3B: Effects of the other protease inhibitors on Hsp70 biosynthesis in HepG2 cells. HepG2 cells were preincubated in serum-free MEM containing either 1.5% BSA alone (Control), or BSA plus 40 μg/ml of ALLN, 40 μg/ml of ALLM, 50 μg/ml of leupeptin, 50 μg/ml of pepstatin A, 25 μg/ml of E-64d, 1 mM of phenylmethylsulfonyl fluoride (PMSF), 100 KIU/ml of apotinin, 1 mM of Benzamidine (Benz), 200 μM of calpain inhibitor peptide (CIP). Radiolabeling (in the presence of protease inhibitors), lysis and immunoprecipitation were performed as described in FIG. 1. The Hsp70 specific radioactivity (A) and the amount of total incorporated radioactivity (TCA-cpm) (B) were compared with each other. All the values were presented as the mean±SD from three individual culture dishes.
Preincubation and labeling media each contained either 1.5% bovine serum albumin (BSA) alone, or BSA plus ALLN (40 μg/ml except as otherwise indicated), or BSA plus other protease inhibitors at concentrations indicated in the figure legends. At the indicated times, cells were removed from the 37° C. incubator and placed on ice, washed with cold phosphate-buffer saline (PBS) twice and lysed with lysis buffer containing 1% Triton X-100 (TX100), 1% deoxycholic acid (DOC) and 0.1% SDS in PBS containing proteinase inhibitors: 2 mM phenylmethylsulfonyl fluoride (PMSF); 2 μg/ml ALLN; 2 μg/ml leupeptin; and 2 μg/ml aprotinin. After a 30 min. incubation with lysis buffer at 4° C., the lysates were centrifuged at 14,000 g in a microcentrifuge for 5 min., and the supernatants were adjusted to 1% SDS concentration and boiled for 5 min. to denature the proteins. 1% TX100 was then added to dilute the lysates to a final concentration of 0.1% SDS. Cell lysates containing equal amounts of trichloroacetic acid (TCA)-insoluble radioactivity were used for immunoprecipitations by incubating with individual monoclonal antibody (1 μg/ml) for 2.5 hours at 4° C. Protein-A Sepharose 4B was added afterwards and the lysates incubated for another 1.5 hours at 4° C. to collect the immunocomplexes. […]

[1] = system: human microvascular endothelial cell line; assay: TCA-cpm measurement in human microvascular endothelial cell line; format: cell-based; conditions: 4 hours ALLN 40 μg/ml

Which results are given for `CCCC[C@@H](C=O)NC(=O)[C@H](CC(C)C)NC(=O)[C@H](CC(C)C)NC(C)=O` [ALLN, N-acetyl-leucyl-leucyl-norleucinal] (Ac-Leu-Leu-[Nle]-aldehyde)?
oligomeric form of HSF1 after EGS cross-linking (HSF1; 270-kDa cross-linked product): exists as a trimer; steady-state levels of HSF1 in whole cell extracts (HSF1; with or without cycloheximide): not significantly affected; cell total incorporation of radiolabel (TCA cpm, indicator of cell toxicity) (HepG2 cells): did not change significantly; TCA-cpm measurement [1]: no change
